Here are results for 1 compound from patent US11278584B2, “Pharmaceutical composition for preventing and treating senile dementia and preparation method thereof” (priority 2014, dated 2022).

The test system of test [1] is Scop induced dysmnesia model rats. The test can be described thus: Morris water maze test, scopolamine-induced dysmnesia model rats. The test is classed as in vivo, SD Male rats. The settings on record: intragastric 2 weeks, compositions 11.08 g raw medicinal materials/kg, Donepezil 1.17 mg/kg. The procedure:
(§1) Animals: SD Male rats, available from Da Shuo Biological Technology Co. LTD, Chengdu City, China, were used. 2. Testing Method
(§2) Rats were randomly divided into Normal control group, Scop Model group, Positive control group (Donepezil, 1.17 mg/kg) and Experimental group (administered with a pharmaceutical composition of Example 1 in an amount of 11.08g raw medicinal materials per kg body weight). Before experiments, rats were fed by intragastric administration for 2 weeks. The normal control group and the model group were fed the same volume of distilled water. On day 9, rats were trained in the pool of Morris 2 times per day. On day 14, rats were subjected to do Morris water Maze and jump platform testing.
(§3) On experiment day, rats were intragastrically administered. 30 Minutes later, they were administered with scopolamine hydrobromide (HBr) by intraperitoneal injections (2 mg·kg^−1 for two days and then 1 mg·kg^−1 on day 3). 20 Minutes later, rats were subjected to Morris water Maze testing. […] Their swimming performance was tracked and recorded by a camera. The travel path, time spent and speed of movement of rats in 90 s were recorded by a computer automatically, and the swimming distance and escape latency for finding the platform were calculated. […] The first step down latency (SDL) and escape latency (the time required to escape from electric shock, EL) of rats were recorded.

The test system of test [2] is Scop induced dysmnesia model mice. Briefly: Morris water maze test, scopolamine-induced dysmnesia model mice. It is filed as in vivo. The following applies: KM mice, intragastric 2 weeks, compositions 31.66 g raw medicinal materials/kg (J: high dosage), Donepezil 1.67 mg/kg. An excerpt:
Animals: KM mice, available from Da Shuo Biological Technology Co. LTD, Chengdu City, China, were used.
Before experiments, mice of experimental group were fed by intragastric administration of a pharmaceutical composition for 2 weeks, while the normal control group and the model group were fed the same volume of distilled water. On day 9, mice were trained in the pool of Morris, 2 times per day. On day 14, mice were subjected to Morris water Maze testing.
On experiment day, mice were fed by intragastric administration. 30 Minutes later, they were administered with Scop in a dosage of 3 mg·kg^−1 via intraperitoneal injection. 20 Minutes later, the mice were subjected to Morris water Maze testing. The normal control group was intraperitoneally injected with the same volume of saline. The swimming performance of mice were tracked and recorded by a camera. The travel path, time spent and speed of movement of mice in 300 s were recorded by a computer automatically. The maximum latency was set as 300 s. The recording stopped after 300 s. The escape latency and swimming distance for looking for the platform were recorded.

Test [3] concerns Scop induced dysmnesia model rats. Briefly: Jump platform test, scopolamine-induced dysmnesia model rats. The test is classed as in vivo, SD Male rats. The following applies: intragastric 2 weeks, compositions 11.08 g raw medicinal materials/kg, Donepezil 1.17 mg/kg. The procedure: as §1, §2, §3

SMILES strings stand for the structures. Structures can show the parent of a compound that is named as a salt.

For the compound `COc1cc2c(cc1OC)C(=O)C(CC1CCN(Cc3ccccc3)CC1)C2` (stereo not drawn) [Positive control, Donepezil Hydrochloride], the “Escape latency” value in test [1] (model control 49.63) was 37.27 s; in test [2] (model control 176.54), 141.42 s. For the same compound, the “Distance (cm)” value in test [1] (model control 2173.42) is recorded as 1647.50 cm. Moreover, the “Swimming Distance (cm)” value in test [2] (model control 3646.54) is recorded as 2738.70 cm. Besides, the “SDL(s) (first step down latency)” value in test [3] (model control 16.04) is 28.67 s. Besides, the “EL(s) (escape latency from electric shock)” value in test [3] (model control 130.63) was determined as 109.17 s.
